From patent US20210169883A1, “METHOD OF TREATING AGGRESSION WITH OREXIN RECEPTOR ANTAGONISTS” (Icahn School of Medicine at Mount Sinai, priority 2018, published 2021)
“Also recorded” adds a separate entry of the source. Read-outs that look alike come from different tables or passages of the source.

How the values were obtained:
[1] = system: putative glutamatergic LHb neurons; test: Slice optogenetic stimulation of LHb GAD2 neurons recording; type: cell-based, mouse
OX1R = molecular target: T1, OX1R (Homo sapiens, UniProt O43613); settings: less potent; cited from earlier work
T1 sequence (O43613 1-425): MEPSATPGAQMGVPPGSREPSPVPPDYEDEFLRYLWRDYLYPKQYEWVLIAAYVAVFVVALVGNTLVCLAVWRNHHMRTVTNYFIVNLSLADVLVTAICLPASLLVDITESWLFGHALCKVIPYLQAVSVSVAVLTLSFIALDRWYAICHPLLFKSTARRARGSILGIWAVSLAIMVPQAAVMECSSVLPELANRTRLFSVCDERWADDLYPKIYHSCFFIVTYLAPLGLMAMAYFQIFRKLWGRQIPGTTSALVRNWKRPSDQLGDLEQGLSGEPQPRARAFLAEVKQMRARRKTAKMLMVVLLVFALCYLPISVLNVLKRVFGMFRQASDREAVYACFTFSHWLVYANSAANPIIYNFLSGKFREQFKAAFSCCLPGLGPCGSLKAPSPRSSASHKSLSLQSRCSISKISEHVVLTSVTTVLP

OX2R = molecular target: T2, OX2R (Homo sapiens, UniProt O43614); settings: cited from earlier work
T2 sequence (O43614 1-444): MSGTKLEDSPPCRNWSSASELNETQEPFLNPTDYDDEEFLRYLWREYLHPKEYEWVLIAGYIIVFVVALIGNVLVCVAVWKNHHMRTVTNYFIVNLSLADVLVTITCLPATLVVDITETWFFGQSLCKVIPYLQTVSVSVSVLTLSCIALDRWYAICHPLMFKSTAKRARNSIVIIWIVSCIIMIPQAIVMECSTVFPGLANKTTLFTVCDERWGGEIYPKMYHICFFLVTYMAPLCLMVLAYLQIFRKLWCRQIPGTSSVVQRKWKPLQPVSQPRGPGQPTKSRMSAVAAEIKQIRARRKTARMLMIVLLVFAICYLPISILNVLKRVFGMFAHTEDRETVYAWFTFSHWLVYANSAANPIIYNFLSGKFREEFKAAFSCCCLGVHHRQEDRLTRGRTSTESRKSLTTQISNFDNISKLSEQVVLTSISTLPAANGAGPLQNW

[2] = system: aggressive (AGG) male CD-1 mice; type: in vivo, mouse
Experimental: Aggression screening was performed as previously described by utilizing the resident intruder (RI) test (Golden et al., 2016b). After a minimum of one week of habituation to home cages, experimental mice were exposed to a novel C57BL/6J intruder for 3 min daily over 3 consecutive days. Each intruder presentation was performed in the home cage of the experimental mouse between 12-3 PM daily under white light conditions. During RI sessions the cage top was removed to allow for unobstructed viewing and video recording of sessions. The duration and number of screening sessions were selected to prevent induction of stress- and anxiety-related behaviors in experimental mice (Golden et al., 2016b). All RI sessions were video recorded with a digital color video camera. Two blind observers recorded (1) the latency to initial aggression and (2) the total duration of aggression. The initiation of aggression was defined by the first clear physical antagonistic interaction initiated by the resident mouse (usually a bite), not including grooming or pursuit behavior. Aggression was considered completed when the resident mouse had reoriented away from the intruder following the initiation of attack. This definition allows for slight breaks (less than 5 s) in continuous physical interaction within an aggressive bout, assuming the resident mouse has remained oriented towards the intruder throughout.
(§1) Vehicle comparison for these drugs consisted of 75% DMSO in sterile water alone. SR-9659 was dissolved in 20% DMSO in sterile water. Vehicle comparison for this drug consisted of 20% DMSO in water alone. All drugs were administered intraperitoneally (I.P.) 30 minutes before behavioral testing. All injection volumes were limited to 100 μl.
First, mice were screened for three consecutive days in the RI test. Only AGGs were selected for subsequent pharmacology experiments, as it was hypothesized that treatment with orexin antagonists would reduce aggression. […] 24 hours following the last RI test, mice were treated again with either drug or vehicle and anxiety and locomotion were assessed using the open field test.

male CD-1 mice [3] = test: Social recognition test; type: in vivo, mouse; settings: 30 mg/kg EMPA or 20 mg/kg seltorexant IP; one-way ANOVA
Experimental: as §1, with “(IP)” for “(I.P.)”
Mice were presented with two conspecific mice in a first (training) session, and then one of the two conspecific mice was replaced with an unfamiliar mouse in a second (test) session. The time spent by the test mouse investigating each conspecific mouse provided and index of social memory. This was calculated by subtracting the time spent with the novel mouse from the time spent with the familiar mouse.

male CD-1 mice [4] = test: Object placement test (spatial memory); type: in vivo, mouse; settings: 30 mg/kg EMPA or 20 mg/kg seltorexant IP; one-way ANOVA
Experimental: as §1, with “(IP)” for “(I.P.)”
Mice were presented with two of the same object in a first (training) session, and then one of the two objects was moved to a different location in the arena during a second (test) session. The time spent investigating each object provided an index of spatial memory. This was calculated by subtracting the time spent with the object in the familiar location from the time spent with the object in the novel location.

male CD-1 mice [5] = test: Object recognition test; type: in vivo, mouse; settings: 30 mg/kg EMPA or 20 mg/kg seltorexant IP; one-way ANOVA
Experimental: as §1, with “(IP)” for “(I.P.)”
Mice were presented with two different objects in a first (training) session, and then one of the two objects was replaced with a new object during a second (test) session. The time spent investigating each object provided an index of object recognition memory. This was calculated by subtracting the time spent with the familiar object from the time spent with the novel object.

[6] = cited from earlier work; for abuse potential: human, in vivo
[7] = system: aggressive (AGG) CD-1 mice; test: Resident intruder (RI) test, acute systemic EMPA (Example 1); type: in vivo, mouse
Experimental: Aggression screening was performed as previously described by utilizing the resident intruder (RI) test (6). After a minimum of one week of habituation to home cages, experimental mice were exposed to a novel C57BL/6J intruder for 3 min daily over 3 consecutive days. Each intruder presentation was performed in the home cage of the experimental mouse between 12-3 PM daily under white light conditions. During RI sessions the cage top was removed to allow for unobstructed viewing and video recording of sessions. The duration and number of screening sessions were selected to prevent induction of stress- and anxiety-related behaviors in experimental CD-1 or F1 hybrid mice (6). All RI sessions were video recorded with a digital color video camera. Two blind observers recorded (1) the latency to initial aggression and (2) the total duration of aggression. The initiation of aggression was defined by the first clear physical antagonistic interaction initiated by the resident mouse (usually a bite), not including grooming or pursuit behavior. Aggression was considered completed when the resident mouse had reoriented away from the intruder following the initiation of attack. This definition allows for slight breaks (less than 5 s) in continuous physical interaction within an aggressive bout, assuming the resident mouse has remained oriented towards the intruder throughout. […]

[8] = system: aggressive (AGG) CD-1 mice; test: Aggression conditioned place preference (CPP), systemic EMPA (Example 1); type: in vivo, mouse; settings: EMPA 30 mg/kg I.P., vs vehicle, between-subjects
Experimental: The aggression CPP protocol was carried out according to Golden et al. (6). Briefly, this task consisted of three phases: pre-test, acquisition (conditioning), and test. Mice were acclimated to the testing facility for 1 h before all testing. All phases were conducted under red light and sound-attenuated conditions. The CPP apparatus (Med Associates) consisted of two unique conditioning chambers with a neutral middle zone that allowed for unbiased entry into either conditioning chamber at the initiation of each trial. During the pre-test phase, mice were placed into the middle chamber of the conditioning apparatus and allowed to freely explore the apparatus for 20 min. There were no group differences in bias for either chamber, and conditioning groups were balanced in an unbiased fashion to account for pre-test preference. The acquisition phase consisted of three consecutive days with two conditioning trials each day for a total of 6 acquisition trials. Morning trials (between 8-10 AM) and afternoon trials (between 3-5 PM) consisted of experimental mice confined to one chamber for 10 min while in the presence or absence of a novel C57BL/6J intruder mouse. All groups were counterbalanced for the conditioning chamber. […] Total locomotor activity was also recorded to ensure equal exploratory behavior between groups. […]

[9] = three days of RI, daily I.P. 30 min before test, EMPA 30 mg/kg, seltorexant 20 mg/kg, suvorexant 20 mg/kg

Compound: picrotoxin
- optically elicited monosynaptic inhibitory currents in putative glutamatergic LHb neurons [1]: completely blocked

Compound: orexin-B
- potency in activating OX1R relative to orexin-A (OX1R): 10 fold
- potency towards OX2R relative to orexin-A (OX2R): equipotent

Compound: Cc1cc(C)nc(N2CC3CN(C(=O)c4c(F)cccc4-n4nccn4)CC3C2)n1 (stereo not shown) [seltorexant]
- effects of OxR2 antagonism on aggression, EMPA versus seltorexant ([2]; mouse, in vivo): virtually indistinguishable
- latency to attack ([2]; mouse, in vivo): increased
- total duration of attack ([2]; mouse, in vivo): reduced
- time spent with each mouse compared to vehicle treatment (social recognition, FIG. 18A) (male CD-1 mice [3]): did not alter
- time spent with each object compared to vehicle treatment (spatial memory, object placement, FIG. 18B) (male CD-1 mice [4]): did not alter
- time spent with each object compared to vehicle treatment (object recognition memory, FIG. 18C) (male CD-1 mice [5]): did not alter
- abuse potential [6]: low abuse potential

Compound: CCN(Cc1cccnc1)C(=O)CN(c1ccc(OC)nc1)S(=O)(=O)c1ccccc1C [EMPA, N-ethyl-2-[(6-methoxy-pyridin-3-yl)-(toluene-2-sulphonyl)-amino]-N-pyridin-3-ylmethyl-acetamide]
- attack duration in RI test ([7]; EMPA 30 mg/kg I.P. 25 min before test, vs vehicle, within-subjects): reduced
- aggression (in RI) ([7]; systemic EMPA, 30 mg/kg, acute): reduces aggression; also recorded: reduced
- aggression CPP [8]: reduced
- effects of OxR2 antagonism on aggression, EMPA versus seltorexant ([2]; over the three days of RI): virtually indistinguishable
- latency to attack [2, 9]: increased
- total duration of attack [2, 9]: reduced
- time spent with each mouse compared to vehicle treatment (social recognition, FIG. 18A) (male CD-1 mice [3]): did not alter
- time spent with each object compared to vehicle treatment (spatial memory, object placement, FIG. 18B) (male CD-1 mice [4]): did not alter
- time spent with each object compared to vehicle treatment (object recognition memory, FIG. 18C) (male CD-1 mice [5]): did not alter

Compound: Cc1ccc(-n2nccn2)c(C(=O)N2CCN(c3nc4cc(Cl)ccc4o3)CC[C@H]2C)c1 [suvorexant]
- reduction / attenuation of aggressive behavior ([2]; RI test, doses tested): some attenuation of aggression
- number of mice that attacked, drug vs vehicle ([2]; any day of RI, suvorexant 20 mg/kg I.P., SR-9659 I.P.): no differences
- latency to attack [2, 9]: only altered attack latency and duration on day 3
- total duration of attack [2, 9]: only altered attack latency and duration on day 3
- abuse potential [6]: low abuse potential
- tolerability in patient populations ([6]; variety of patient populations): well tolerated
